Tests used:
Type in all cases: cell-based
Pseudomonas aeruginosa = assay: MIC against Gram-negative bacteria: Pseudomonas aeruginosa; settings: for MIC against P. aeruginosa / MIC (μg/mL) P. aeruginosa: 5×10^5 CFU/mL; for MIC: P. aeruginosa
In short: (§1)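 Bacteria grown in LB at 37° C to McFarland 0.5, resuspended and seeded at 5×10^5 CFU/mL in 96-well plates. Purified human EGF-domain proteins two-fold serially diluted, triplicate wells; cultured at 37° C, shaking 175 rpm. MIC = lowest protein concentration with no growth.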

Proteus vulgaris = assay: MIC against Gram-negative bacteria: Proteus vulgaris; settings: for MIC against P. vulgaris / MIC (μg/mL) P. vulgaris: 5×10^5 CFU/mL; for MIC: P. vulgaris
In short: as §1

Enterobacter cloacae = assay: MIC against Gram-negative bacteria: Enterobacter cloacae; settings: for MIC against E. cloacae / MIC (μg/mL) E. cloacae: 5×10^5 CFU/mL; for MIC: E. cloacae
In short: as §1

Klebsiella pneumonia = assay: MIC against Gram-negative bacteria: Klebsiella pneumonia; settings: for MIC against K. pneumonia / MIC (μg/mL) K. pneumonia: 5×10^5 CFU/mL; for MIC: K. pneumonia
In short: as §1

Aeromonas hydrophila = assay: MIC against Gram-negative bacteria: Aeromonas hydrophila; settings: for MIC against A. hydrophila / MIC (μg/mL) A. hydrophila: 5×10^5 CFU/mL; for MIC: A. hydrophila
In short: as §1

E. coli DH5α = assay: Antibacterial activity: MIC and growth curve against E. coli DH5α in 96-well plate; settings: minimal inhibitory concentration against E. coli DH5α; 96-well plate, 5×10^5 CFU/mL, 37° C., judged after 8 h
In short: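 Log-phase bacteria (OD600 ~0.5) resuspended in LB at 5×10^5 CFU/mL, exposed to recombinant protein at 50, 25, 12.5 μg/mL final in triplicate, 37 °C shaking at 175 rpm. OD600 read every 30 min; MIC is lowest concentration showing no growth.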

Serratia marcescens = assay: MIC against Gram-negative bacteria: Serratia marcescens; settings: for MIC against S. marcescens / MIC (μg/mL) S. marcescens: 5×10^5 CFU/mL; for MIC: S. marcescens
In short: as §1

Moraxella catarrhalis = assay: MIC against Gram-negative bacteria: Moraxella catarrhalis; settings: for MIC against M. catarrhalis / MIC (μg/mL) M. catarrhalis: 5×10^5 CFU/mL; for MIC: M. catarrhalis
In short: as §1

Citrobacter diversus = assay: MIC against Gram-negative bacteria: Citrobacter diversus; settings: for MIC against C. diversus / MIC (μg/mL) C. diversus: 5×10^5 CFU/mL; for MIC: C. diversus
In short: as §1

Proteus mirabilis = assay: MIC against Gram-negative bacteria: Proteus mirabilis; settings: for MIC against P. mirabilis / MIC (μg/mL) P. mirabilis: 5×10^5 CFU/mL; for MIC: P. mirabilis
In short: as §1

E. coli BL21 = assay: MIC against Gram-negative bacteria: E. coli BL21; settings: for MIC against E. coli BL21 / MIC (μg/mL) E. coli BL21: 5×10^5 CFU/mL
In short: as §1

[1] = Pseudomonas aeruginosa, 96-well plate, 37° C., 10 h
[2] = Proteus vulgaris, 96-well plate, 37° C., 10 h
[3] = Enterobacter cloacae, 96-well plate, 37° C., 10 h
[4] = Klebsiella pneumonia, 96-well plate, 37° C., 10 h
[5] = Aeromonas hydrophila, 96-well plate, 37° C., 10 h
[6] = Serratia marcescens, 96-well plate, 37° C., 10 h
[7] = Moraxella catarrhalis, 96-well plate, 37° C., 10 h
[8] = Citrobacter diversus, 96-well plate, 37° C., 10 h
[9] = Proteus mirabilis, 96-well plate, 37° C., 10 h
[10] = E. coli BL21, 96-well plate, 37° C., 10 h
[11] = E. coli BL21, 10 h cultivation at 37° C.

Row | Substance | MIC (E. coli DH5α) [µg/mL] | MIC (μg/mL) P. aeruginosa (Pseudomonas aeruginosa; [1]) [µg/mL] | MIC (μg/mL) P. vulgaris (Proteus vulgaris; [2]) [µg/mL] | MIC (μg/mL) E. cloacae (Enterobacter cloacae; [3]) [µg/mL] | MIC (μg/mL) K. pneumonia (Klebsiella pneumonia; [4]) [µg/mL] | MIC (μg/mL) A. hydrophila (Aeromonas hydrophila; [5]) [µg/mL] | MIC (μg/mL) S. marcescens (Serratia marcescens; [6]) [µg/mL] | MIC (μg/mL) M. catarrhalis (Moraxella catarrhalis; [7]) [µg/mL] | MIC (μg/mL) C. diversus (Citrobacter diversus; [8]) [µg/mL] | MIC (μg/mL) P. mirabilis (Proteus mirabilis; [9]) [µg/mL] | MIC (μg/mL) E. coli BL21 (E. coli BL21; [10]) [µg/mL] | further results
1 | PRT494 (CNCSLVGSTHHRCDVVTGHCQCKSKFGGRACDQCSLGYRDFPDCVP; listed as Homo sapiens) | 50 |  |  |  |  |  |  |  |  |  |  | MIC against P. aeruginosa (Pseudomonas aeruginosa; 96-well plate, 37° C., 10 h): 12.5 µg/mL; MIC against P. vulgaris (Proteus vulgaris; 96-well plate, 37° C., 10 h): 25 µg/mL; MIC against E. cloacae (Enterobacter cloacae; 96-well plate, 37° C., 10 h): 50 µg/mL; MIC against K. pneumonia (Klebsiella pneumonia; 96-well plate, 37° C., 10 h): 25 µg/mL; MIC against A. hydrophila (Aeromonas hydrophila; 96-well plate, 37° C., 10 h): 25 µg/mL; MIC against S. marcescens (Serratia marcescens; 96-well plate, 37° C., 10 h): 12.5 µg/mL; MIC against M. catarrhalis (Moraxella catarrhalis; 96-well plate, 37° C., 10 h): 25 µg/mL; MIC against C. diversus (Citrobacter diversus; 96-well plate, 37° C., 10 h): 12.5 µg/mL; MIC against P. mirabilis (Proteus mirabilis; 96-well plate, 37° C., 10 h): 50 µg/mL; MIC against E. coli BL21 (E. coli BL21; 96-well plate, 37° C., 10 h): 25 µg/mL
2 | PRT506 (CNCSVAGSVSDGCTDEGQCHCVPGVAGKRCDRCAHGFYAYQDGSCTP; listed as Homo sapiens) | 25 |  |  |  |  |  |  |  |  |  |  | MIC against P. aeruginosa (Pseudomonas aeruginosa; 96-well plate, 37° C., 10 h): 25 µg/mL; MIC against P. vulgaris (Proteus vulgaris; 96-well plate, 37° C., 10 h): 12.5 µg/mL; MIC against E. cloacae (Enterobacter cloacae; 96-well plate, 37° C., 10 h): 25 µg/mL; MIC against K. pneumonia (Klebsiella pneumonia; 96-well plate, 37° C., 10 h): 50 µg/mL; MIC against A. hydrophila (Aeromonas hydrophila; 96-well plate, 37° C., 10 h): 12.5 µg/mL; MIC against S. marcescens (Serratia marcescens; 96-well plate, 37° C., 10 h): 12.5 µg/mL; MIC against M. catarrhalis (Moraxella catarrhalis; 96-well plate, 37° C., 10 h): 50 µg/mL; MIC against C. diversus (Citrobacter diversus; 96-well plate, 37° C., 10 h): 25 µg/mL; MIC against P. mirabilis (Proteus mirabilis; 96-well plate, 37° C., 10 h): 25 µg/mL; MIC against E. coli BL21 (E. coli BL21; 96-well plate, 37° C., 10 h): 12.5 µg/mL
3 | PRT21 (NCATPCTEGCECNQGFVLSTSQCV; listed as Homo sapiens) | 25 | 12.5 | 25 | 50 | 25 | 12.5 | 50 | 12.5 | 25 | 50 | 50 | 
4 | PRT142 (PCPGRYLRAGKCAELPNCLDDLGGFACECATGFELGKDGRSCV; listed as Homo sapiens) | 12.5 | 25 | 25 | 25 | 12.5 | 25 | 12.5 | 25 | 12.5 | 12.5 | 12.5 | 
5 | PRT16 (EKSPCQPNPCHGAAPCRVLPEGGAQCECPLGREGTFCQ; listed as Homo sapiens) | 12.5 | 25 | 25 | 12.5 | 12.5 | 50 | 25 | 12.5 | 25 | 50 | 12.5 | 
6 | PRT1036 (VEDKCEKACRPEEECLALNSTWGCFCRQDLNSSDVHSLQPQLDCG; listed as Homo sapiens) | 25 |  |  |  |  |  |  |  |  |  |  | MIC (Pseudomonas aeruginosa; 10 h cultivation at 37° C.): 25 µg/mL; MIC (Proteus vulgaris; 10 h cultivation at 37° C.): 50 µg/mL; MIC (Enterobacter cloacae; 10 h cultivation at 37° C.): 50 µg/mL; MIC (Klebsiella pneumonia; 10 h cultivation at 37° C.): 25 µg/mL; MIC (Aeromonas hydrophila; 10 h cultivation at 37° C.): 12.5 µg/mL; MIC (Serratia marcescens; 10 h cultivation at 37° C.): 50 µg/mL; MIC (Moraxella catarrhalis; 10 h cultivation at 37° C.): 12.5 µg/mL; MIC (Citrobacter diversus; 10 h cultivation at 37° C.): 50 µg/mL; MIC (Proteus mirabilis; 10 h cultivation at 37° C.): 50 µg/mL; MIC (E. coli BL21; [11]): 50 µg/mL
7 | PRT36 (PVRDCSKDNGGCSKNFRCISDRKLDSTGCVCPSGLSPMKDSSGCY; listed as Homo sapiens) | 12.5 | 12.5 | 12.5 | 25 | 12.5 | 25 | 25 | 25 | 50 | 25 | 25 | 
8 | PRT935 (NIDECASNPCLNQGTCFDDISGYTCHCVLPYTGKNCQ; listed as Homo sapiens) | 12.5 |  |  |  |  |  |  |  |  |  |  | MIC (Pseudomonas aeruginosa; 10 h cultivation at 37° C.): 25 µg/mL; MIC (Proteus vulgaris; 10 h cultivation at 37° C.): 12.5 µg/mL; MIC (Enterobacter cloacae; 10 h cultivation at 37° C.): 25 µg/mL; MIC (Klebsiella pneumonia; 10 h cultivation at 37° C.): 12.5 µg/mL; MIC (Aeromonas hydrophila; 10 h cultivation at 37° C.): 25 µg/mL; MIC (Serratia marcescens; 10 h cultivation at 37° C.): 12.5 µg/mL; MIC (Moraxella catarrhalis; 10 h cultivation at 37° C.): 12.5 µg/mL; MIC (Citrobacter diversus; 10 h cultivation at 37° C.): 100 µg/mL; MIC (Proteus mirabilis; 10 h cultivation at 37° C.): 12.5 µg/mL; MIC (E. coli BL21; [11]): 25 µg/mL
9 | PRT1013 (LEDPCPPSFCSKRGRCHIQASGRPQCSCMPGWTGEQCQ; listed as Homo sapiens) | 12.5 |  |  |  |  |  |  |  |  |  |  | MIC (Pseudomonas aeruginosa; 10 h cultivation at 37° C.): 12.5 µg/mL; MIC (Proteus vulgaris; 10 h cultivation at 37° C.): 25 µg/mL; MIC (Enterobacter cloacae; 10 h cultivation at 37° C.): 12.5 µg/mL; MIC (Klebsiella pneumonia; 10 h cultivation at 37° C.): 25 µg/mL; MIC (Aeromonas hydrophila; 10 h cultivation at 37° C.): 12.5 µg/mL; MIC (Serratia marcescens; 10 h cultivation at 37° C.): 50 µg/mL; MIC (Moraxella catarrhalis; 10 h cultivation at 37° C.): 25 µg/mL; MIC (Citrobacter diversus; 10 h cultivation at 37° C.): 12.5 µg/mL; MIC (Proteus mirabilis; 10 h cultivation at 37° C.): 12.5 µg/mL; MIC (E. coli BL21; [11]): 12.5 µg/mL
10 | PRT1374 (GVRQCPNDCSQHGVCQDGVCICWEGYVSEDC; listed as Homo sapiens) | 50 |  |  |  |  |  |  |  |  |  |  | MIC against P. aeruginosa (Pseudomonas aeruginosa; Pseudomonas aeruginosa, 10 h cultivation at 37° C.): 25 µg/mL; MIC against P. vulgaris (Proteus vulgaris; Proteus vulgaris, 10 h cultivation at 37° C.): 12.5 µg/mL; MIC against E. cloacae (Enterobacter cloacae; Enterobacter cloacae, 10 h cultivation at 37° C.): 25 µg/mL; MIC against K. pneumonia (Klebsiella pneumonia; Klebsiella pneumonia, 10 h cultivation at 37° C.): 12.5 µg/mL; MIC against A. hydrophila (Aeromonas hydrophila; Aeromonas hydrophila, 10 h cultivation at 37° C.): 12.5 µg/mL; MIC against S. marcescens (Serratia marcescens; Serratia marcescens, 10 h cultivation at 37° C.): 12.5 µg/mL; MIC against M. catarrhalis (Moraxella catarrhalis; Moraxella catarrhalis, 10 h cultivation at 37° C.): 12.5 µg/mL; MIC against C. diversus (Citrobacter diversus; Citrobacter diversus, 10 h cultivation at 37° C.): 12.5 µg/mL; MIC against P. mirabilis (Proteus mirabilis; Proteus mirabilis, 10 h cultivation at 37° C.): 12.5 µg/mL; MIC against E. coli BL21 (E. coli BL21; [11]): 12.5 µg/mL
11 | PRT77 (RSGRCTPGVCKNGGTCVNLLVGGFKCDCPSGDFEKPYCQ; listed as Homo sapiens) | 25 | 25 | 50 | 25 | 50 | 12.5 | 50 | 12.5 | 50 | 50 | 12.5 | 

— patent publication US9833497B2, “Human originated EGF domain proteins and use of the same” (CHENGDU SOURCEBIO LIMITED-LIABILITY COMPANY, priority 2013, dated 2017)
